Patent US4670431A, “Beta-lactam antibacterial agents” (Beecham Group p.l.c., priority 1983, dated 1987)

Tested on: P. mirabilis 889
Assay: MIC against P. mirabilis 889
Type: cell-based, Proteus mirabilis
Conditions: not given
Description: The antibiotic compounds of the present invention are active against a wide range of gram negative and gram positive organisms including E. coli such as, for example ESS, JT4, JT425 and NCTC 10418; Pseudomonas Spp. such Ps.aeruginosa for example 10662 and Dalgleish; Serratia marcescens US32; Klebsiella aerogenes A; Enterobacter cloacae N1; P.mirabilis such as, for example C977 and 889; P.morganii, P.rettgeri; B.subtilis; Staph aureus such as, for example Oxford and Russell; N.catarrhalis 1502; Strep faecalis I; β-Haemolytic Strep CN10. The MIC data included in the following examples is representative of the activity of the compounds of the present invention.

Row | Structure (SMILES) | MIC against P. mirabilis 889
1 | CCN1CCN(C(=O)N[C@@H](C(=O)N[C@]2(NC=O)C(=O)N3C(C(=O)O)=C(COC(C)=O)C[S+]([O-])[C@@H]32)c2ccccc2)C(=O)C1=O (single isomer, unassigned) [Example 3 Isomer B, Sodium 7β-[D-2-[(4-Ethyl-2,3-dioxopiperazin-1-yl)carbonylamino]-2-phenylacetamido]-7α-formamidocephalosporanate-1-oxide] | 0.25 µg/mL
2 | CCN1CCN(C(=O)N[C@@H](C(=O)N[C@]2(NC=O)C(=O)N3[C@@H](C(=O)O)C(C)(C)[S+]([O-])[C@@H]32)c2ccc(OC(C)=O)c(OC(C)=O)c2)C(=O)C1=O (single isomer, unassigned; isomer a) [Example 17, Sodium 6β-[D-2-[(4-ethyl-2,3-dioxopiperazin-1-yl)carbonylamino]-2-(3,4-diacetoxyphenyl)acetamido]-6α-formamidopenicillanate-1-oxide, Isomer A] | 4.0 µg/mL

Same assay, conditions: Proteus mirabilis, 889

Row | Structure (SMILES) | MIC
3 | CCN1CCN(C(=O)N[C@@H](C(=O)N[C@]2(NC=O)C(=O)N3C(C(=O)O)=C(CSc4nnnn4C)C[S@+]([O-])[C@@H]32)c2ccccc2)C(=O)C1=O [Example 8(e), Sodium 7β-[D-2-[(4-Ethyl-2,3-dioxopiperazin-1-yl)carbonylamino]-2-phenylacetamido]-7α-formamido-3-[(1-methyl-1H-tetrazol-5-yl)thiomethyl]ceph-3-em-4-carboxylate-1β-oxide] | 0.5 µg/mL
4 | CCN1CCN(C(=O)N[C@@H](C(=O)N[C@]2(NC=O)C(=O)N3[C@@H](C(=O)O)C(C)(C)[S+]([O-])[C@@H]32)c2ccccc2)C(=O)C1=O (single isomer, unassigned) [Example 22 Isomer B, Sodium 6β-[D-2-[(4-ethyl-2,3-dioxopiperazin-1-yl)carbonylamino]-2-phenylacetamido]-6α-formamidopenicillanate-1-oxide] | 1 µg/mL

Other lines, results leading:

Row | MIC | Structure (SMILES)
5 | 0.25 µg/mL | CCN1CCN(C(=O)N[C@@H](C(=O)N[C@]2(NC=O)C(=O)N3C(C(=O)O)=C(CSc4nnnn4C)C[S@@+]([O-])[C@@H]32)c2ccc(O)c(O)c2)C(=O)C1=O [Example 16(e), Sodium 7β-[D-2-(3,4-dihydroxyphenyl)-2-[(4-ethyl-2,3-dioxopiperazin-1-yl)carbonylamino]acetamido]-7α-formamido-3-[(1-methyl-1H-tetrazol-5-yl)thiomethyl]-ceph-3-em-4-carboxylate-1α-oxide]
6 | 1 µg/mL | CCN1CCN(C(=O)N[C@@H](C(=O)N[C@]2(NC=O)C(=O)N3C(C(=O)O)=C(CSc4nnnn4C)C[S@+]([O-])[C@@H]32)c2ccc(O)c(O)c2)C(=O)C1=O [Example 16(d), Sodium 7β-[D-2-(3,4-dihydroxyphenyl)-2-[(4-ethyl-2,3-dioxopiperazin-1-yl)carbonylamino]acetamido]-7α-formamido-3-[(1-methyl-1H-tetrazol-5-yl)thiomethyl]-ceph-3-em-4-carboxylate-1β-oxide]
